Earlier results in article PMC6530635, “A Novel Single-Site Mutation in the Catalytic Domain of Protoporphyrinogen Oxidase IX (PPO) Confers Resistance to PPO-Inhibiting Herbicides” (Frontiers in Plant Science, 2019).

Test system: Amaranthus palmeri MIS-D population
Design: method as in Salas-Perez et al., 2017
Conditions: MIS-D field population; 1X dose; ref Salas-Perez et al., 2017; cited from earlier work

In the case of `Cc1nn(-c2cc(CC(Cl)C(=O)O)c(Cl)cc2F)c(=O)n1C(F)F` (stereo not shown) [Carfentrazone], the “Frequency of resistant plants” value is listed as 20%.
